Results reported in patent US11008339B2, “Substituted pyrazole compounds containing pyrimidine and preparation method and use thereof” (Shenyang Sinochem Agrochemicals R&D Co., Ltd., priority 2015, dated 2021).
Where two headings read alike, the source gives them in different places.

How the values were obtained:
[1] = system: cucumber downy mildew; assay: Protective activity in vivo (whole plant spray) against cucumber downy mildew; conditions: for inhibition at 25 µg/mL: Cucumis sativus, read-out: protective activity (%) against cucumber downy mildew
Experimental: (§1) The method is as followed: The whole plant is used in this test. The compound is dissolved in a proper solvent to get mother solution. The proper solvent is selected from acetone, methanol, DMF and so on according to their dissolving capability to the sample. The volume rate of solvent and testing solution (v/v) is equal to or less than 5%. […] The testing solution is sprayed to the host plant by a special plant sprayer. The plant is inoculated with fungus after 24 hours. According to the infecting characteristic of fungus, the plant is stored in a humidity chamber and then transferred into greenhouse after infection is finished. And the other plants are placed in greenhouse directly.

[2] = system: rice blast; assay: microbe, parasite or virus in culture; assay type: cell-based; conditions: Pyricularia oryzae, 24 h, read-out: inhibition rate against rice blast
[3] = system: cucumber gray mold; assay: Fungicidal activity in vitro (96-well, inhibition rate) against cucumber gray mold; assay type: cell-based; conditions: 24 hours
[4] = system: wheat powdery mildew; assay: Protective activity in vivo (whole plant spray) against wheat powdery mildew; conditions: 100 mg/L, comparative test (Table 130); for inhibition at 100 µg/mL: Triticum aestivum
Experimental: as §1

[5] = system: corn rust; assay: Protective activity in vivo (whole plant spray) against corn rust; conditions: comparative test (Table 131)
Experimental: as §1

[6] = system: cucumber anthracnose; assay: Protective activity in vivo (whole plant spray) against cucumber anthracnose; conditions: for inhibition at 100 µg/mL: Cucumis sativus, read-out: protective activity (%) against cucumber anthracnose; for control against cucumber anthracnose: 6.25 ppm, protective, in vivo
Experimental: as §1

[7] = system: diamond back moth; assay: Bioactivity test against diamond back moth (airbrush spray, leaf disc); assay type: in vivo; conditions: for Insecticidal activity against diamond back moth (%): 600 mg/L, contrastive test (Table 133)
Experimental: (§2) Compounds were dissolved in mixed solvent (acetone:methanol=1:1), and diluted to required concentration with water containing 0.1% of tween 80.
(§3) Diamond back moth, armyworm, peach aphid and carmine spider mite were used as targets and the method of spraying by airbrush was used for determination of insecticidal biassays.
The method of spraying by airbrush: The cabbage leaves were made into plates of 2 cm diameter by use of punch. A test solution (0.5 ml) was sprayed by airbrush at the pressure of 0.7 kg/cm^2 to both sides of every plate. 10 Second instar larvae were put into the petri-dishes after the leaf disc air-dried and 3 replicates were set for each treatment. Then the insects were maintained in observation room (25° C., 60˜70% R.H.). Scores were conducted and mortalities were calculated after 72 h.

[8] = system: Green peach aphids (Myzus Persicae Sulzer); assay: Bioactivity test against green peach aphid (airbrush foliar spray); assay type: in vivo; conditions: 100 mg/L, contrastive test (Table 134)
Experimental: as §2, §3
Method: Filter papers were put in culture dishes (Diameter=6 cm), and water was dripped on filter papers for preserving moisture. Green peach aphids (Myzus Persicae Sulzer) were maintained on cabbage. Leaves (Diameter=3 cm) of approximately 15-30 aphids were put in the culture dishes. Bioactivity tests were used the method of Airbrush Foliar Spray, pressure=10 psi (0.7 kg/cm2), spray volume=0.5 mL. The studies were conducted at […] 25±1 C in incubator cabinets with 60±5% RH. Survey the survival aphids after 48 h and calculate the death rates.

[9] = system: carmine spider mite; assay: Bioactivity test against carmine spider mite (airbrush spray); assay type: in vivo; conditions: contrastive test (Table 135)
Experimental: as §2, §3
The method: Broadbean shoots with two true leaves in pot were taken, the healthy adults of carmine spider mite were inoculated to the leaves. The adults were counted and then sprayed with airbrush at the pressure of 0.7 kg/cm^2 and at dose of 0.5 ml. 3 replicates were set for each treatment. And then they were maintained in standard observation room. Scores were conducted and mortalities were calculated after 72 hrs.

[10] = 25 mg/L, comparative test (Table 129)
[11] = 100 mg/L, comparative test (Table 132)

## Clc1cccc(-n2ccc(OCCNc3ncnc4ccccc34)n2)c1 [Compound 40-18]
[1]; [10]
  protective activity (%) against cucumber downy mildew: 100%

## Cc1cc(N(C)Cc2c(C)nn(-c3ccccc3)c2C)nc(C)n1 [CK5]
[2]
  inhibition at 25 ppm: 0%
[3]
  inhibition at 25 ppm: 0%
[1]; [10]
  inhibition at 25 µg/mL: 0%
[4]
  inhibition at 100 µg/mL: 0%
[5]; 25 mg/L
  control effect against corn rust (%): 60%
[5]; 100 mg/L
  control effect against corn rust (%): 70%
[6]; [11]
  inhibition at 100 µg/mL: 0%
[7]
  Insecticidal activity against diamond back moth (%): 0%
[8]
  Insecticidal activity against peach aphid (%): 22%
[9]; 600 mg/L
  Insecticidal activity against carmine spider mite (%): 58%

## CCc1ncnc(NCCCOc2ccn(-c3ccc(C(F)(F)F)cc3)n2)c1Cl [Compound 125-69]
[4]
  protective activity (%) against wheat powdery mildew: 100%

## Cc1ncnc(NCCOc2ccn(-c3c(Cl)cc(Cl)cc3Cl)n2)c1Cl [Compound 31-30]
[1]; [10]
  protective activity (%) against cucumber downy mildew: 100%
[4]
  protective activity (%) against wheat powdery mildew: 98%

## FC(F)(F)c1ccc(-n2ccc(OCCNc3ncnc4scc(Cl)c34)n2)cc1 [Compound 42-69]
[1]; [10]
  protective activity (%) against cucumber downy mildew: 80%
[4]
  protective activity (%) against wheat powdery mildew: 100%
[5]; 25 mg/L
  control effect against corn rust (%): 85%
[5]; 100 mg/L
  control effect against corn rust (%): 90%
[6]; [11]
  protective activity (%) against cucumber anthracnose: 95%

## Cc1ncnc(NCCOc2ccn(-c3ccc(Cl)cc3)n2)c1Cl [Compound 31-19]
[1]
  inhibition at 25 µg/mL: 100%
[6]
  inhibition at 100 µg/mL: 90%

## Cc1ccc(-n2ccc(OCCNc3ncnc4ccccc34)n2)cc1 [Compound 40-57]
[6]; [11]
  protective activity (%) against cucumber anthracnose: 98%
[6]
  control against cucumber anthracnose: 90%

## Clc1ccccc1-n1ccc(OCCNc2ncnc3ccccc23)n1 [Compound 40-17]
[1]
  inhibition at 25 µg/mL: 70%
other
  melting point: 186.6 °C

## Clc1ccc(-n2ccc(OCCNc3ncnc4ccccc34)n2)c(Cl)c1 [Compound 40-21]
[1]; [10]
  protective activity (%) against cucumber downy mildew: 100%

## Clc1cc(Cl)c(-n2ccc(OCCNc3ncnc4ccccc34)n2)c(Cl)c1 [Compound 40-30]
[1]; [10]
  protective activity (%) against cucumber downy mildew: 100%

## FC(F)c1ncnc(NCCCOc2ccn(-c3ccc(C(F)(F)F)cc3)n2)c1Cl [Compound 126-69]
[1]; [10]
  protective activity (%) against cucumber downy mildew: 70%
[4]
  protective activity (%) against wheat powdery mildew: 100%
[6]; [11]
  protective activity (%) against cucumber anthracnose: 95%

## Clc1csc2ncnc(NCCOc3ccn(-c4ccccc4)n3)c12 [Compound 42-1]
[1]; [10]
  protective activity (%) against cucumber downy mildew: 100%
[6]; [11]
  protective activity (%) against cucumber anthracnose: 95%
[6]
  control against cucumber anthracnose: 90%

## Clc1ccccc1-n1ccc(OCCNc2ncnc3scc(Cl)c23)n1 [Compound 42-17]
[1]; [10]
  protective activity (%) against cucumber downy mildew: 100%

## FC(F)(F)c1ccc(-n2ccc(OCCCNc3ncnc4scc(Cl)c34)n2)cc1 [Compound 128-69]
[4]
  protective activity (%) against wheat powdery mildew: 100%

## c1ccc(-n2ccc(OCCNc3ncnc4ccccc34)n2)cc1 [Compound 40-1]
[1]; [10]
  protective activity (%) against cucumber downy mildew: 70%

## COc1c(Cl)ncnc1NCCCOc1ccn(-c2ccc(C(F)(F)F)cc2)n1 [Compound 123-69]
[4]
  protective activity (%) against wheat powdery mildew: 100%
[6]; [11]
  protective activity (%) against cucumber anthracnose: 90%

## Cc1ncnc(NCCOc2ccn(-c3c(Cl)cccc3Cl)n2)c1Cl [Compound 31-23]
[1]; [10]
  protective activity (%) against cucumber downy mildew: 100%

## CCc1ncnc(NCc2cnn(-c3ccccc3)c2C(F)(F)F)c1Cl [CK2]
[2]
  inhibition at 25 ppm: 0%
[3]
  inhibition at 25 ppm: 0%
[1]; [10]
  inhibition at 25 µg/mL: 20%
[4]
  inhibition at 100 µg/mL: 50%
[7]
  Insecticidal activity against diamond back moth (%): 20%

## Cc1cc(N(C)Cc2cnn(-c3ccccc3)c2)nc(C(C)C)n1 [CK4]
[2]
  inhibition at 25 ppm: 0%
[3]
  inhibition at 25 ppm: 0%
[1]; [10]
  inhibition at 25 µg/mL: 0%
[4]
  inhibition at 100 µg/mL: 0%
[5]; 25 mg/L
  control effect against corn rust (%): 0%
[5]; 100 mg/L
  control effect against corn rust (%): 0%
[6]; [11]
  inhibition at 100 µg/mL: 0%
[7]
  Insecticidal activity against diamond back moth (%): 0%
[8]
  Insecticidal activity against peach aphid (%): 0%
[9]; 600 mg/L
  Insecticidal activity against carmine spider mite (%): 59%

## Cc1c(Cl)ncnc1NCCCOc1ccn(-c2ccc(C(F)(F)F)cc2)n1 [Compound 122-69]
[4]
  protective activity (%) against wheat powdery mildew: 100%
[6]; [11]
  protective activity (%) against cucumber anthracnose: 85%

## CCc1ncnc(NCCOc2ccn(-c3c(Cl)cc(Cl)cc3Cl)n2)c1Cl [Compound 32-30]
[1]; [10]
  protective activity (%) against cucumber downy mildew: 100%
[4]
  protective activity (%) against wheat powdery mildew: 100%

## Clc1ccc(-n2ccc(OCCNc3ncnc4scc(Cl)c34)n2)c(Cl)c1 [Compound 42-21]
[1]; [10]
  protective activity (%) against cucumber downy mildew: 100%

## Cc1nc(C)c(C)c(N(C)Cc2cnn(-c3ccccc3)c2)n1 [CK3]
[2]
  inhibition at 25 ppm: 0%
[3]
  inhibition at 25 ppm: 0%
[1]; [10]
  inhibition at 25 µg/mL: 0%
[4]
  inhibition at 100 µg/mL: 0%
[5]; 25 mg/L
  control effect against corn rust (%): 0%
[5]; 100 mg/L
  control effect against corn rust (%): 20%
[6]; [11]
  inhibition at 100 µg/mL: 0%
[7]
  Insecticidal activity against diamond back moth (%): 0%
[8]
  Insecticidal activity against peach aphid (%): 30%
[9]; 600 mg/L
  Insecticidal activity against carmine spider mite (%): 56%

## CCc1ncnc(NC(C)COc2ccn(-c3ccc(Cl)cc3)n2)c1Cl (stereo not drawn) [Compound 37-19]
[4]
  protective activity (%) against wheat powdery mildew: 95%
[5]; 25 mg/L
  control effect against corn rust (%): 90%
[5]; 100 mg/L
  control effect against corn rust (%): 100%
[7]
  Insecticidal activity against diamond back moth (%): 100%
[7]; 600 ppm, mortality after 72 h
  control against diamond back moth: 100%
[8]
  Insecticidal activity against peach aphid (%): 84%
[9]; 100 mg/L
  Insecticidal activity against carmine spider mite (%): 100%
[9]; 600 mg/L
  Insecticidal activity against carmine spider mite (%): 100%

## CC(COc1ccn(-c2ccc(Cl)cc2)n1)Nc1ncnc(Cl)c1Cl (stereo not drawn) [Compound 35-19]
[1]; [10]
  protective activity (%) against cucumber downy mildew: 100%
[4]
  protective activity (%) against wheat powdery mildew: 70%

## Fc1ccc(-n2ccc(OCCNc3ncnc4ccccc34)n2)cc1 [Compound 40-4]
[1]; [10]
  protective activity (%) against cucumber downy mildew: 100%

## CC(COc1ccn(-c2ccc(Cl)cc2)n1)Nc1ncnc2scc(Cl)c12 (stereo not drawn) [Compound 44-19]
[2]
  inhibition at 2.8 ppm: > 80%
  inhibition at 8.3 ppm: > 80%
  inhibition at 25 ppm: > 80%
[3]
  inhibition at 25 ppm: > 80%
[1]; [10]
  inhibition at 25 µg/mL: 100%
[4]
  inhibition at 100 µg/mL: 100%
[9]; 100 mg/L
  Insecticidal activity against carmine spider mite (%): 100%
[9]; 600 mg/L
  Insecticidal activity against carmine spider mite (%): 100%

## FC(F)(F)c1ccc(-n2ccc(OCCCNc3ncnc4ccccc34)n2)cc1 [Compound 127-69]
[1]; [10]
  protective activity (%) against cucumber downy mildew: 70%
[4]
  protective activity (%) against wheat powdery mildew: 100%
[6]; [11]
  protective activity (%) against cucumber anthracnose: 92%

## Clc1ccc(-n2ccc(OCCNc3ncnc4ccccc34)n2)cc1 [Compound 40-19]
[1]; [10]
  protective activity (%) against cucumber downy mildew: 96%
[6]; [11]
  protective activity (%) against cucumber anthracnose: 100%

## Clc1cccc(-n2ccc(OCCNc3ncnc4scc(Cl)c34)n2)c1 [Compound 42-18]
[1]; [10]
  protective activity (%) against cucumber downy mildew: 100%

## CCc1ncnc(NCc2cnn(-c3ccccc3)c2C)c1Cl [CK1]
[2]
  inhibition at 25 ppm: 0%
[3]
  inhibition at 25 ppm: 0%
[1]; [10]
  inhibition at 25 µg/mL: 20%
[7]
  Insecticidal activity against diamond back moth (%): 43%
[8]
  Insecticidal activity against peach aphid (%): 0%
